In patent US20040086942A1, “Ige receptor antagonists” (priority 2003, published 2004):
Like-named read-outs stand apart in the source and are kept apart here. Where a SMILES comes first, the peptide text is derived from it. Bridges are numbered along the chain shown (N, C = ends). [ ]: non-standard residue; d: D form. Pip = O=C(O)[C@@H]1CCCCN1

Target: T1, alpha subunit of the human FcεRI receptor (Homo sapiens, UniProt P12319)
T1 construct: expressed in transfected cells; host or cells: Chinese hamster ovary (CHO FcεRI+) cells
T1 sequence (P12319 26-257): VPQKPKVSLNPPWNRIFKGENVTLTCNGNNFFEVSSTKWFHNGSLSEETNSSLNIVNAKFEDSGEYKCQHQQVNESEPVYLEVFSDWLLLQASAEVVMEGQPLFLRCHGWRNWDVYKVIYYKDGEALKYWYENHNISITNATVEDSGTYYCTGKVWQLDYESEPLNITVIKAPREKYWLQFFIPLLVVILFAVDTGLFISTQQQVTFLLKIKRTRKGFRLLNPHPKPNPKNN
Assay: cell-based 125I-IgE binding inhibition assay on CHO FcεRI+ cells
Conditions: for fold difference in activity relative to comparator peptide: comparator (parent/control peptide) as named in the sentence
Method: . The following day the cells were rinsed three times with PBS and then once with F12/DMEM. Peptide stocks were reconstituted in 100 mM Hepes buffered water, pH 7.2, at a concentration of 5 mg/mL. Working concentrations of the peptide were diluted in assay buffer (see below). 75 ul, of a desired concentration of peptide was added to the top row of a separate 96 well microtiter plate and serially diluted 1:3 in 50 uL of the assay buffer (F12/DMEM, 1% BSA, 0.05% NaN3 and […] Hepes pH 7.2). Starting concentrations ranged from 50-500 uM. Next, 50 uL of the diluted peptide was transferred to the 96 microtiter well plate containing a monolayer of CHO FcεRI+ cells. After a 1 hour incubation at room temperature, 50 uL of ^125I-IgE (1.5 nM) was added to each well and incubated for an additional 45-60 minutes at 4° C. followed by 5 washes with 200 uL of assay buffer. Cells were solubilized with 200 uL of 1 N NaOH and transferred to a 96 microtiter tube for counting in a gamma counter to determine counts bound. The data were plotted using KaleidaGraph 3.0 and fitted using 4-parameter fits. IC50 values were determined for each peptide.
Six peptides based on selected clones from library #516 were synthesized and assayed for the ability to inhibit the binding of ^125I-IgE to a Chinese hamster ovary cell line expressing the alpha subunit of the IgE high affinity receptor, FcεRI. The peptides were synthesized as nine residue monomers and oxidized to allow the formation of a disulfide bridge resulting in a cyclic peptide. The size of each peptide was confirmed by mass spectrometry.

[1] = IgE-inhibition activity of synthetic peptides, read-out: Inhibition activity: C+hd 50 +l (uM) ± s.d.
[2] = inhibition of labeled IgE-binding to CHO FcεRI+ cells, read-out: Mean IC50(uM) ± S.D.

| Compound | IC50 [2] [µM] | also measured |
| --- | --- | --- |
| CC(C)C[C@H](NC(=O)[C@H](C)N)C(=O)N[C@H]1CSSC[C@@H](C(=O)N[C@@H](Cc2ccc(O)cc2)C(=O)N[C@H](C(N)=O)C(C)C)NC(=O)[C@H](C(C)C)NC(=O)[C@H](CCC(=O)O)NC(=O)[C@@H]2CCCN2C1=O [IGE035, ALCPEVCYV-nh2] (H-ALCPEVCYV-NH2; disulfide 3-7) | – | inhibiting 125I-IgE binding to cell surface expressed FcεRI (in words): not active; IC50 [1]: > 500 µM |
| CC(=O)N[C@@H](C)C(=O)N[C@@H](CC(C)C)C(=O)N[C@H]1CSSC[C@@H](C(=O)N[C@@H](Cc2ccc(O)cc2)C(=O)N[C@H](C(N)=O)C(C)C)NC(=O)[C@H](C(C)C)NC(=O)[C@H](CCC(=O)O)NC(=O)[C@@H]2CCCN2C1=O [IGE036, Ac-ALCPEVCYV-nh2] (Ac-ALCPEVCYV-NH2; disulfide 3-7) | – | inhibiting 125I-IgE binding to cell surface expressed FcεRI (in words): not active; IC50 [1]: > 500 µM |
| CSCC[C@H](NC(=O)[C@@H]1CSSC[C@H](NC(=O)[C@H](CCCNC(=N)N)NC(=O)[C@@H]2CCCN2C(=O)[C@H](CC(C)C)NC(=O)[C@@H](N)CC(N)=O)C(=O)N[C@@H]([C@@H](C)O)C(=O)N[C@@H](CCC(=O)O)C(=O)NCC(=O)N2CCC[C@H]2C(=O)N[C@@H](Cc2c[nH]c3ccccc23)C(=O)NCC(=O)N[C@@H](Cc2c[nH]c3ccccc23)C(=O)N[C@@H](C(C)C)C(=O)N1)C(=O)N[C@@H](C)C(=O)N[C@@H](C)C(=O)N[C@@H](CC(=O)O)C(N)=O [IGE043, NLPRCTEGPWGWVCMAAD-nh2] (H-NLPRCTEGPWGWVCMAAD-NH2; disulfide 5-14) | 1.4 ± 1 | – |
| CC[C@H](C)[C@H](NC(=O)[C@@H]1CSSC[C@H](N)C(=O)N[C@@H](CC(C)C)C(=O)N[C@@H](CCC(=O)O)C(=O)NCC(=O)N2CCC[C@H]2C(=O)N[C@@H](Cc2c[nH]c3ccccc23)C(=O)NCC(=O)N[C@@H](Cc2c[nH]c3ccccc23)C(=O)N[C@@H](Cc2ccccc2)C(=O)N1)C(N)=O [IGE045, CLEGPWGWFCI-nh2] (H-CLEGPWGWFCI-NH2; disulfide 1-10; N-terminus assumed) | 300 ± 269 | – |
| CC[C@H](C)[C@H](NC(=O)[C@@H]1CSSC[C@H](N)C(=O)N[C@@H]([C@@H](C)O)C(=O)N[C@@H](CCC(=O)O)C(=O)NCC(=O)N2CCC[C@H]2C(=O)N[C@@H](Cc2c[nH]c3ccccc23)C(=O)NCC(=O)N[C@@H](Cc2c[nH]c3ccccc23)C(=O)N[C@@H](C(C)C)C(=O)N1)C(N)=O [IGE055, CTEGPWGWVCI-nh2] (H-CTEGPWGWVCI-NH2; disulfide 1-10) | > 500 | – |
| CC[C@H](C)[C@H](NC(=O)[C@@H]1CSSC[C@H](NC(C)=O)C(=O)N[C@@H]([C@@H](C)O)C(=O)N[C@@H](CCC(=O)O)C(=O)NCC(=O)N2CCC[C@H]2C(=O)N[C@@H](Cc2c[nH]c3ccccc23)C(=O)NCC(=O)N[C@@H](Cc2c[nH]c3ccccc23)C(=O)N[C@@H](C(C)C)C(=O)N1)C(N)=O [IGE056, Ac-CTEGPWGWVCI-nh2] (Ac-CTEGPWGWVCI-NH2; disulfide 1-10) | > 500 | – |
| CSCC[C@H](NC(=O)[C@@H]1CSSC[C@H](NC(=O)[C@H](CCCNC(=N)N)NC(=O)[C@@H]2CCCN2C(=O)[C@H](CC(C)C)NC(=O)[C@H](CC(N)=O)NC(C)=O)C(=O)N[C@@H]([C@@H](C)O)C(=O)N[C@@H](CCC(=O)O)C(=O)NCC(=O)N2CCC[C@H]2C(=O)N[C@@H](Cc2c[nH]c3ccccc23)C(=O)NCC(=O)N[C@@H](Cc2c[nH]c3ccccc23)C(=O)N[C@@H](C(C)C)C(=O)N1)C(N)=O [IGE058, Ac-NLPRCTEGPWGWVCM-nh2] (Ac-NLPRCTEGPWGWVCM-NH2; disulfide 5-14) | 1.8 ± 1.3 | – |
| CSCC[C@H](NC(=O)[C@@H]1CSSC[C@H](NC(=O)[C@H](CCCNC(=N)N)NC(=O)[C@@H]2CCCN2C(=O)[C@H](CC(C)C)NC(=O)[C@H](CC(N)=O)NC(C)=O)C(=O)N[C@@H]([C@@H](C)O)C(=O)N[C@@H](C)C(=O)NCC(=O)N2CCC[C@H]2C(=O)N[C@@H](Cc2c[nH]c3ccccc23)C(=O)NCC(=O)N[C@@H](Cc2c[nH]c3ccccc23)C(=O)N[C@@H](C(C)C)C(=O)N1)C(=O)N[C@@H](C)C(=O)N[C@@H](C)C(=O)N[C@@H](CC(=O)O)C(N)=O [IGE059, AC-NLPRCTAGPWGWVCMAAD-nh2] (Ac-NLPRCTAGPWGWVCMAAD-NH2; disulfide 5-14) | – | fold reduction in inhibition/binding (truncations and alanine substitutions of IGE063): 6 fold |
| CSCC[C@H](NC(=O)[C@@H]1CSSC[C@H](NC(=O)[C@@H]2CCCN2C(=O)[C@H](CC(C)C)NC(=O)[C@H](CC(N)=O)NC(C)=O)C(=O)N[C@@H]([C@@H](C)O)C(=O)N[C@@H](C)C(=O)NCC(=O)N2CCC[C@H]2C(=O)N[C@@H](Cc2c[nH]c3ccccc23)C(=O)NCC(=O)N[C@@H](Cc2c[nH]c3ccccc23)C(=O)N[C@@H](C(C)C)C(=O)N1)C(=O)N[C@@H](C)C(=O)N[C@@H](C)C(=O)N[C@@H](CC(=O)O)C(N)=O [IGE060, Ac-NLPCTAGPWGWVCMAAD-nh2] (Ac-NLPCTAGPWGWVCMAAD-NH2; disulfide 4-13) | > 500 | – |
| CSCC[C@H](NC(=O)[C@@H]1CSSC[C@H](NC(=O)[C@H](CCCNC(=N)N)NC(=O)[C@@H]2CCCN2C(=O)[C@H](CC(C)C)NC(=O)[C@@H](N)CC(N)=O)C(=O)N[C@@H]([C@@H](C)O)C(=O)N[C@@H](CCC(=O)O)C(=O)NCC(=O)N[C@@H](C)C(=O)N[C@@H](Cc2c[nH]c3ccccc23)C(=O)NCC(=O)N[C@@H](Cc2c[nH]c3ccccc23)C(=O)N[C@@H](C(C)C)C(=O)N1)C(=O)O [IGE070, NLPRCTEGAWGWVCM] (H-NLPRCTEGAWGWVCM-OH; disulfide 5-14) | > 500 | – |
| CC[C@H](C)[C@H](NC(=O)[C@@H]1CSSC[C@H](NC(=O)[C@H](CCCNC(=N)N)NC(=O)[C@@H]2CCCN2C(=O)[C@H](CC(C)C)NC(=O)[C@@H](N)CC(N)=O)C(=O)N[C@@H]([C@@H](C)O)C(=O)N[C@@H](CCC(=O)O)C(=O)NCC(=O)N2CCC[C@H]2C(=O)N[C@@H](Cc2c[nH]c3ccccc23)C(=O)NCC(=O)N[C@@H](Cc2c[nH]c3ccccc23)C(=O)N[C@@H](C(C)C)C(=O)N1)C(=O)O [IGE075, NLPRCTEGPWGWVCI] (H-NLPRCTEGPWGWVCI-OH; disulfide 5-14; N-terminus and C-terminus assumed) | 1.4 ± 1.1 | – |
| CC[C@H](C)[C@H](N)C(=O)N[C@H](C(=O)N[C@H]1CSSC[C@@H](C(=O)N[C@@H](Cc2ccc(O)cc2)C(=O)N[C@H](C(N)=O)C(C)C)NC(=O)[C@H](C(C)C)NC(=O)[C@H](CC(=O)O)NC(=O)[C@@H]2CCCN2C(=O)[C@@H]2CSSC[C@H](NC(=O)[C@H](CC(C)C)NC(=O)[C@H](CCCNC(=N)N)NC(=O)[C@@H]3CCCN3C1=O)C(=O)N[C@@H](Cc1ccc(O)cc1)C(=O)N[C@@H](CCC(=O)O)C(=O)N[C@@H](CC(C)C)C(=O)N[C@@H](CC(=O)O)C(=O)N[C@@H](Cc1ccc(O)cc1)C(=O)N[C@@H](CCC(=O)O)C(=O)N[C@@H](CC(C)C)C(=O)N2)C(C)C [IGE141] (H-IVCPRLCYELDYELCPDVCYV-NH2; disulfide 3-19, 7-15) | – | fold difference in activity relative to comparator peptide: 2 fold |
| CC(C)C[C@@H]1NC(=O)[C@H](CCC(=O)O)NC(=O)[C@H](C)NC(=O)CNC(=O)CNC(=O)[C@H](Cc2ccccc2)NC(=O)[C@H](Cc2ccc(O)cc2)NC(=O)[C@@H]2CSSC[C@H](NC1=O)C(=O)N1CCC[C@H]1C(=O)N[C@@H](CC(=O)O)C(=O)N[C@@H](C(C)C)C(=O)N[C@H](C(=O)N[C@@H](Cc1ccc(O)cc1)C(=O)N[C@H](C(N)=O)C(C)C)CSSC[C@H](NC(=O)[C@H](CCC(N)=O)NC(=O)[C@@H](N)C(C)C)C(=O)N1CCCC[C@H]1C(=O)N[C@@H](Cc1c[nH]cn1)C(=O)N[C@@H](Cc1ccccc1)C(=O)N2 [IGE162-2, VQC(Pip)HFCYFGGAELCPDVCYV-nh2] (H-VQC[Pip]HFCYFGGAELCPDVCYV-NH2; disulfide 3-19, 7-15) | – | fold difference in activity relative to comparator peptide: little change in activity |
